From ChEMBL document CHEMBL2407081, “Discovery of potent, isoform-selective inhibitors of histone deacetylase containing chiral heterocyclic capping groups and a N-(2-aminophenyl)benzamide binding unit” (J Med Chem, 2013)

Tests used:
Histone deacetylase 8 = target: T1, Histone deacetylase 8 (Homo sapiens, UniProt Q9BY41); assay: Inhibition of recombinant HDAC8 (unknown origin) expressed in Escherichia coli BL21 using MAL as substrate incubated for 15 mins prior to substrate addition measured after 60 mins by fluorescence plate reader analysis
T1 sequence (Q9BY41 whole entry): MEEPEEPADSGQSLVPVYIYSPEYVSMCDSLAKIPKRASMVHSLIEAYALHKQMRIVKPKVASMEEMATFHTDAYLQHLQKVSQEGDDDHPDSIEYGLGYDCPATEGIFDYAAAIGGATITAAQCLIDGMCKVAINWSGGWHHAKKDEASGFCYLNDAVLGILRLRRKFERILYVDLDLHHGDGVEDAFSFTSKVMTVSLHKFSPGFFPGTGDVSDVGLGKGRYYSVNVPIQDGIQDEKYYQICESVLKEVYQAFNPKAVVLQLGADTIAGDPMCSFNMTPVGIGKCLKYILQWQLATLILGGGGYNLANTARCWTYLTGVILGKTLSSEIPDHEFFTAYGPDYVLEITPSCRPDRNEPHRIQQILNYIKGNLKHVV

[1] = target: Histone deacetylase 3/NCoR1 (Homo sapiens, UniProt O15379); assay: Inhibition of recombinant HDAC3-NCoR1 (unknown origin) using MAL as substrate incubated for 3 hrs prior to substrate addition measured after 60 mins by fluorescence plate reader analysis; assay type: protein-complex assay
Histone deacetylase 2 = Histone deacetylase 2 (Homo sapiens, UniProt Q92769); assay: Inhibition of recombinant His-tagged HDAC2 (1 to 488) (unknown origin) using MAL as substrate incubated for 3 hrs prior to substrate addition measured after 60 mins by fluorescence plate reader analysis
[2] = target: T2, Protein deacetylase HDAC6 (Homo sapiens, UniProt Q9UBN7); assay: Inhibition of recombinant His-tagged HDAC6 (unknown origin) using Fluor-de-Lys SIRT1 as substrate incubated for 3 hrs prior to substrate addition measured after 60 mins by fluorescence plate reader analysis
T2 sequence (Q9UBN7 whole entry): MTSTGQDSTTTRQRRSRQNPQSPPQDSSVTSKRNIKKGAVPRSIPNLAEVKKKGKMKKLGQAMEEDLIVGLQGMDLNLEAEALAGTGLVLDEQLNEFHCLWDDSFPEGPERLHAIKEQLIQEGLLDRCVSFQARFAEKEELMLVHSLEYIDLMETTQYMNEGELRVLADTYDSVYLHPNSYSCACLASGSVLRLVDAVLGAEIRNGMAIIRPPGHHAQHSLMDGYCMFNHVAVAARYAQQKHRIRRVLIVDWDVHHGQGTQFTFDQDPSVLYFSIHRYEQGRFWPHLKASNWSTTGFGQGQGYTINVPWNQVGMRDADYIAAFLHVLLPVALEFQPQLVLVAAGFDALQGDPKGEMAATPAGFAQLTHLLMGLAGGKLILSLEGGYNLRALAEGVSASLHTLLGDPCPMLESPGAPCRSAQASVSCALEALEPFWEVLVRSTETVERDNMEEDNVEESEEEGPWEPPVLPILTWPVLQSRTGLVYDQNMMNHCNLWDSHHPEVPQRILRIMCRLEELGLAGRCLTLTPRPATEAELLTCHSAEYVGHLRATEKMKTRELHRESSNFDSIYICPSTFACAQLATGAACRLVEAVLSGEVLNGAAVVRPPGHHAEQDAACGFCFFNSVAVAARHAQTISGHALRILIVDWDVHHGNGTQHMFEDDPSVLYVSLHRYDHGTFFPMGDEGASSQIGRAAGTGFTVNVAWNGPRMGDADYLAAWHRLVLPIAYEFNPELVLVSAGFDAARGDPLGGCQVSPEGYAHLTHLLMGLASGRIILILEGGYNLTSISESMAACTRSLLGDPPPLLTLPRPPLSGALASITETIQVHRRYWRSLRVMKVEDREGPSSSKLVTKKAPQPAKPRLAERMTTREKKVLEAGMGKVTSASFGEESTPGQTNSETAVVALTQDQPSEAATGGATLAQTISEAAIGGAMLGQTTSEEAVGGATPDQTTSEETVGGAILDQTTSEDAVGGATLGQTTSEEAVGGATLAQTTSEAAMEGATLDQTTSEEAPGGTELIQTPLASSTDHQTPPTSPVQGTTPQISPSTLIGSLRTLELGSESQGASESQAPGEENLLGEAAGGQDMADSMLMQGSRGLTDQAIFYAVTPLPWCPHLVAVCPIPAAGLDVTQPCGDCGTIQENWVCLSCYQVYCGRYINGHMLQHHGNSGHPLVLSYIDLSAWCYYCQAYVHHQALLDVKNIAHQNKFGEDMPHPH

Histone deacetylase 1 = Histone deacetylase 1 (Homo sapiens, UniProt Q13547); assay: Inhibition of recombinant C-terminal FLAG-tagged HDAC1 (unknown origin) expressed in Escherichia coli BL21 using MAL as substrate incubated for 1 hr prior to substrate addition measured after 60 mins by fluorescence plate reader analysis
MCF7 = assay: Cytotoxicity against human MCF7 cells assessed as growth inhibition by measuring cellular ATP level after 72 hrs by cell-titer glo assay; assay type: functional, cell-based; settings: MCF7, 72 h
DU-145 = assay: Cytotoxicity against human DU145 cells assessed as growth inhibition by measuring cellular ATP level after 72 hrs by cell-titer glo assay; assay type: functional, cell-based; settings: DU-145, 72 h
HCT-116 = assay: Cytotoxicity against human HCT116 cells assessed as growth inhibition by measuring cellular ATP level after 72 hrs by cell-titer glo assay; assay type: functional, cell-based; settings: HCT-116, 72 h
A549 = assay: Cytotoxicity against human A549 cells assessed as growth inhibition by measuring cellular ATP level after 72 hrs by cell-titer glo assay; assay type: functional, cell-based; settings: A549, 72 h

Chain of Histone deacetylase 2 (Q92769 whole entry): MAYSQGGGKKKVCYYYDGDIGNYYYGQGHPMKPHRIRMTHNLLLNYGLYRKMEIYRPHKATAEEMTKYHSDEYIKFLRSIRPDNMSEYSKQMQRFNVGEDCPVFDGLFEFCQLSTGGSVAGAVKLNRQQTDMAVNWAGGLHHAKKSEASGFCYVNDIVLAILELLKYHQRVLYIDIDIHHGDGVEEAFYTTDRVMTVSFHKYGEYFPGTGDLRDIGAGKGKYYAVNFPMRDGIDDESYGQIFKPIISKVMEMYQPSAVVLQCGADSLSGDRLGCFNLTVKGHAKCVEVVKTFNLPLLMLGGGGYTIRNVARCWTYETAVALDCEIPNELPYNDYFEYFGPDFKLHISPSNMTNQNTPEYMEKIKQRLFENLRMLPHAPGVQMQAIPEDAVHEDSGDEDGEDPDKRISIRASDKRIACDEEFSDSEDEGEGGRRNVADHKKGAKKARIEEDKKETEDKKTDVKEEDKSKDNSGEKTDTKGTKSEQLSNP
Chain of Histone deacetylase 3/NCoR1 (O15379 whole entry): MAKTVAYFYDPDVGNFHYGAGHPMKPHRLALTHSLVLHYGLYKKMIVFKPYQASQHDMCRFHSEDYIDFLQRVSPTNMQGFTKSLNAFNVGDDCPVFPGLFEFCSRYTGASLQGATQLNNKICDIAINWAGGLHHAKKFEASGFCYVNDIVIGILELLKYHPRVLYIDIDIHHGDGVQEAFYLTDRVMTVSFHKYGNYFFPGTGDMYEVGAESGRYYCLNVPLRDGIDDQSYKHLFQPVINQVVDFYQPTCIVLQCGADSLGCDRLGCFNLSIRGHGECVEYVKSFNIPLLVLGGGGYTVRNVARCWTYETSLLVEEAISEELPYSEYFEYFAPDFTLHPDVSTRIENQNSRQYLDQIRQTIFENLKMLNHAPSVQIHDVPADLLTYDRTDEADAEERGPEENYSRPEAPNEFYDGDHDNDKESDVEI
Chain of Histone deacetylase 3/NCoR1 (O75376 whole entry, further chain): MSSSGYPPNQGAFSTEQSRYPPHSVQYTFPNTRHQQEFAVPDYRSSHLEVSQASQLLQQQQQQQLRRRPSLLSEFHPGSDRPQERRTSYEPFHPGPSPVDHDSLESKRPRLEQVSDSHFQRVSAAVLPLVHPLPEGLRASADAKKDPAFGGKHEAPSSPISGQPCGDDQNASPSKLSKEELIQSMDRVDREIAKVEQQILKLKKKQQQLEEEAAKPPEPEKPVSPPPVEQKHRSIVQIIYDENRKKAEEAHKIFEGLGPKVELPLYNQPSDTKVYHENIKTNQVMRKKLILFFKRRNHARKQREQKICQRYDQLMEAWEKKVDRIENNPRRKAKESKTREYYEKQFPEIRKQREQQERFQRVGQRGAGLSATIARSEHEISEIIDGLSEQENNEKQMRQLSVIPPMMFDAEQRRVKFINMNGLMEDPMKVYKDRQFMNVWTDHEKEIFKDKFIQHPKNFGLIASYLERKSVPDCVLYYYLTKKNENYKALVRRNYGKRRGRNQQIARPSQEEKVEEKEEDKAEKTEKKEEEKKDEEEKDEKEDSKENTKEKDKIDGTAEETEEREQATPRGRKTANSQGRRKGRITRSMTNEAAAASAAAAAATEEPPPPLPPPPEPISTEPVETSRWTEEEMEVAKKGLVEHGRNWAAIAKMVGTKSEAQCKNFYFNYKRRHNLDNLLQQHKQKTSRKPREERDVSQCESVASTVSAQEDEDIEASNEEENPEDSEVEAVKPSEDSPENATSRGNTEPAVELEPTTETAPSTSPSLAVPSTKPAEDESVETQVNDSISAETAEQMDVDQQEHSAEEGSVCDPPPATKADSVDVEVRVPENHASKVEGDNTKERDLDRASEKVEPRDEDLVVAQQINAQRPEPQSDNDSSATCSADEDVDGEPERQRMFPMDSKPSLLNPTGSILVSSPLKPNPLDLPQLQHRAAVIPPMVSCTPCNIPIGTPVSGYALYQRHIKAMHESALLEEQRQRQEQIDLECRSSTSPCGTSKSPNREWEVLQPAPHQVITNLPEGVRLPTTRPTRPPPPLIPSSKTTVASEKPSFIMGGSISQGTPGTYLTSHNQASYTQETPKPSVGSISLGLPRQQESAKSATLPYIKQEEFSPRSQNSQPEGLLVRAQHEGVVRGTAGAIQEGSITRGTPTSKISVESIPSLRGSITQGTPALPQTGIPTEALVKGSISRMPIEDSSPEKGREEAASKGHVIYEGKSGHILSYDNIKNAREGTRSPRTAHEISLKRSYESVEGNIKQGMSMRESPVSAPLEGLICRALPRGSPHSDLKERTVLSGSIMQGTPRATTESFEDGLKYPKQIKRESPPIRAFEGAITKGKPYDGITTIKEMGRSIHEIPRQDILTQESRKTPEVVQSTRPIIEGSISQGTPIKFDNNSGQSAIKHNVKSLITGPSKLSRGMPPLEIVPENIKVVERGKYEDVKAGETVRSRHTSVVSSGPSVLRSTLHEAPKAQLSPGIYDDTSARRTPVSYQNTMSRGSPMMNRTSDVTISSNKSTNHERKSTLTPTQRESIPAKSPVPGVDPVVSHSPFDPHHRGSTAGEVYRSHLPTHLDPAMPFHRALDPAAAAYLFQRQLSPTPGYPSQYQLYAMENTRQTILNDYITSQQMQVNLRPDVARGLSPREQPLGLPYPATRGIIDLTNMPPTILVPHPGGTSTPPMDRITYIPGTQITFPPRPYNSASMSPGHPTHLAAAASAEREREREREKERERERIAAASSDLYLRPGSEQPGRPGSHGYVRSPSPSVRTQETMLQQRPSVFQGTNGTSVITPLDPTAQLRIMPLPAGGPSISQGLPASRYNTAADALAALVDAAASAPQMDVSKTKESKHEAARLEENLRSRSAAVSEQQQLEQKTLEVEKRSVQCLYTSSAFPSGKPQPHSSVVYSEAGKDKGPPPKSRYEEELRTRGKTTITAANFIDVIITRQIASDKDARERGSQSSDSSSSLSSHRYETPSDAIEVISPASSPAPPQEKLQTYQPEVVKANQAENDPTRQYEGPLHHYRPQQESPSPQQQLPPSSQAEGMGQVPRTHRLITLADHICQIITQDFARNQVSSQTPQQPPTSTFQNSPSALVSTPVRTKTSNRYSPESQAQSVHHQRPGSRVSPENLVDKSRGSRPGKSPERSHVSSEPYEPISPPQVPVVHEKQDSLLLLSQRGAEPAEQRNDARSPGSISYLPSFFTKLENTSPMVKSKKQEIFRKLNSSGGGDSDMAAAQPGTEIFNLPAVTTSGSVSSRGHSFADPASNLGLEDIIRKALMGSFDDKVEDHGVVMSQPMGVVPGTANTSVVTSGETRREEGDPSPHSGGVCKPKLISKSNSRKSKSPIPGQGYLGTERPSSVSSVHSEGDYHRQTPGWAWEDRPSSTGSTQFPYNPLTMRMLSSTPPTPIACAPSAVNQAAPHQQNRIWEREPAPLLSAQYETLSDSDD
Chain of Histone deacetylase 1 (Q13547 whole entry): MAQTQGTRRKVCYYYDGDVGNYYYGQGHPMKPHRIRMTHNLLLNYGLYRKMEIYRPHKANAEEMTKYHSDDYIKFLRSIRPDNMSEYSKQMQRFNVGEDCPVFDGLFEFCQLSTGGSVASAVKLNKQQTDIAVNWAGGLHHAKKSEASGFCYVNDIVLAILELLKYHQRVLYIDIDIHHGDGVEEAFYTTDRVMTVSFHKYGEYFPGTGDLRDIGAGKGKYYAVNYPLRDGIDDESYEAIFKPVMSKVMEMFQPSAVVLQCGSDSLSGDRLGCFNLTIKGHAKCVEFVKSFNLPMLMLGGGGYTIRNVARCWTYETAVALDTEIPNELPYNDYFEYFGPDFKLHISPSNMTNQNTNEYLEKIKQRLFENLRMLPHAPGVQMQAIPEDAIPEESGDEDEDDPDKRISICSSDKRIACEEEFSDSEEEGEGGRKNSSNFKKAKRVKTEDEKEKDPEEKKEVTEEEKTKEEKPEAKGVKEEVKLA

| IC50 (Histone deacetylase 8) [nM] | IC50 [1] [nM] | IC50 (Histone deacetylase 2) [nM] | IC50 [2] [nM] | IC50 (Histone deacetylase 1) [nM] | Structure (SMILES) | IC50 (MCF7) [nM] | IC50 (DU-145) [nM] | IC50 (HCT-116) [nM] | IC50 (A549) [nM] |
| --- | --- | --- | --- | --- | --- | --- | --- | --- | --- |
| > 20000 | 111 | 248 | > 20000 |  | COc1ccc(NC(=O)c2ccc(CNc3nccc(-c4cccnc4)n3)cc2)c(N)c1 |  |  |  |  |
| > 20000 | > 20000 | > 20000 | > 20000 |  | CC(C)(C)[Si](C)(C)OCc1ccc(NC(=O)c2ccc(CNc3nccc(-c4cccnc4)n3)cc2)c(N)c1 |  |  |  |  |
| > 20000 | 719 | 1430 | > 20000 |  | Nc1cc(O)ccc1NC(=O)c1ccc(CNc2nccc(-c3cccnc3)n2)cc1 |  |  |  |  |
| > 20000 | 104 | 78 | > 20000 | 190 | Nc1ccccc1NC(=O)c1ccc(CNC2=NC(=O)C(Cc3c[nH]c4ccccc34)N2)cc1 (racemic) |  |  |  |  |
| 34900 | 52 | 104 | > 20000 | 920 | Nc1ccccc1NC(=O)c1ccc(CNC2=N[C@@H](Cc3ccccc3)CS2)cc1 | 3090 | 5450 | 1950 | 6370 |
| 14900 | 287 | 425 |  |  | Nc1ccccc1NC(=O)c1ccc(CNC2=N[C@H](c3ccccc3)[C@@H](c3ccccc3)S2)cc1 |  |  |  |  |
| > 20000 | 890 | 920 | > 20000 |  | Nc1ccccc1NC(=O)c1ccc(CSC2=N[C@@H](Cc3c[nH]c4ccccc34)CS2)cc1 | 9910 | 2800 | 3640 | 9530 |
| > 20000 | 509 | 580 | > 20000 |  | Nc1ccccc1NC(=O)c1ccc(CSC2=N[C@@H](Cc3ccccc3)CS2)cc1 |  |  |  |  |
| > 20000 | > 20000 | > 20000 | > 20000 |  | Nc1cc(C(=O)O)ccc1NC(=O)c1ccc(CNc2nccc(-c3cccnc3)n2)cc1 |  |  |  |  |
| 15000 | 16 | 44 |  | 180 | Nc1ccccc1NC(=O)c1ccc(CNC2=N[C@@H](c3ccc(O)cc3)CS2)cc1 |  |  |  |  |
| 12700 | 36 | 82 | > 20000 | 410 | Nc1ccccc1NC(=O)c1ccc(CN=C2N[C@H](Cc3ccccc3)CS2)cc1 |  |  |  |  |
| > 20000 | 4720 | > 20000 | > 20000 |  | Nc1cc(Br)ccc1NC(=O)c1ccc(CNc2nccc(-c3cccnc3)n2)cc1 |  |  |  |  |
| > 20000 | > 20000 | 16700 | > 20000 |  | Nc1cc(-c2ccccc2)ccc1NC(=O)c1ccc(CNc2nccc(-c3cccnc3)n2)cc1 |  |  |  |  |
| > 20000 | > 20000 | > 20000 | > 20000 |  | Nc1cc(C(=O)OCc2ccccc2)ccc1NC(=O)c1ccc(CNc2nccc(-c3cccnc3)n2)cc1 |  |  |  |  |
|  |  |  |  |  | O=C(CCCCCCC(=O)Nc1ccccc1)NO [VORINOSTAT] | 2290 |  |  | 2270 |
| 1400 | 23 | 111 |  |  | Nc1ccccc1NC(=O)c1ccc(CNC2=NC[C@@H](c3ccccc3)S2)cc1 |  |  |  |  |
| > 20000 | > 20000 | > 20000 | > 20000 |  | Nc1cc(CO)ccc1NC(=O)c1ccc(CNc2nccc(-c3cccnc3)n2)cc1 |  |  |  |  |
| 22700 | 83 | 260 | > 20000 |  | CC(=O)N1C(NCc2ccc(C(=O)Nc3ccccc3N)cc2)=NC(=O)C1Cc1ccccc1 (racemic) |  |  |  |  |
| > 20000 | 630 | > 20000 | > 20000 |  | Nc1cc2ccccc2cc1NC(=O)c1ccc(CNc2nccc(-c3cccnc3)n2)cc1 |  |  |  |  |
| 12600 | 388 | 538 |  |  | Nc1ccccc1NC(=O)c1ccc(CN=C2N[C@@H](c3ccccc3)[C@H](c3ccccc3)S2)cc1 |  |  |  |  |
| 2300 | 12 | 81 |  | 550 | Nc1ccccc1NC(=O)c1ccc(CN=C2NC[C@H](c3ccccc3)S2)cc1 |  |  |  |  |
| 10700 | 79 | 56 | > 20000 | 370 | Nc1ccccc1NC(=O)c1ccc(CN=C2N[C@H](c3ccccc3)CS2)cc1 |  |  |  |  |
| 13000 | 30 | 66 | > 20000 |  | Nc1ccccc1NC(=O)c1ccc(CNC2=NC(=O)C(Cc3ccccc3)N2)cc1 (racemic) | > 50000 | > 50000 | 16600 | > 50000 |
| 27200 | 40 | 48 | > 20000 | 500 | CC(C)(C)OC(=O)N1C(NCc2ccc(C(=O)Nc3ccccc3N)cc2)=NC(=O)C1Cc1c[nH]c2ccccc12 (racemic) |  |  |  |  |
| 24300 | 70 | 116 | > 20000 |  | CC(=O)N1C(NCc2ccc(C(=O)Nc3ccccc3N)cc2)=NC(=O)C1Cc1c[nH]c2ccccc12 (racemic) |  |  |  |  |
| 5160 | 63 | 440 | > 20000 |  | Nc1ccccc1NC(=O)c1ccc(CSC2=N[C@@H](c3ccccc3)CS2)cc1 |  |  |  |  |
